# From patent US20260138970A1, “MODULATORS OF THE CALCIUM SIGNALING CASCADE” (FONDAZIONE TELETHON ETS, priority 2022, published 2026)
# Assays:
# Format in all cases: cell-based
# TMEM16A = test: Short-circuit current recordings on human cultured bronchial epithelia, UTP-triggered Cl- secretion; conditions: UTP 0.25 μM; ARN7149 10 μM, ARN11391 20 μM, ARN4550 20 μM; amiloride, paxillin, inh-172 present; FIG. 5A
# Experimental: Human bronchial epithelial cells (HBECs) were isolated and cultured as reported in a previous study (21; 40). Briefly, HBECs were cultured in flasks in a home-made serum-free medium (21). After four to five passages, cells were seeded at high density (500,000/cm^2) on Snapwell porous insert (cc3801, Corning Costar). After 24 h from seeding, the basolateral medium was replaced with differentiation medium PneumaCult ALI (Stemcell Technologies), whereas the apical medium was totally removed to obtain the air-liquid interface (ALI) condition. Epithelia were kept under this condition for at least 2-3 weeks to achieve mucociliary differentiation.
# Snapwell supports (3801, Corning) carrying FRT and differentiated HBEC epithelia were mounted in a vertical chamber resembling an Ussing system with internal fluid circulation (EM-CSYS-8, Physiologic Instruments, San Diego, CA, USA). For FRT epithelia, the apical and basolateral hemichambers were filled with solutions of different composition. The apical solution (5 ml) contained (in mM): 63 NaCl, 63 sodium gluconate, 0.38 KH2PO4, 2.13 K2HPO4, 2 CaCl2, 1 MgSO4, 20 Na-Hepes (pH 7.3), and 10 glucose. The basolateral solution (5 ml) instead contained (in mM): 126 KCl, 0.38 KH2PO4, 2.13 K2HPO4, 1 CaCl2, 1 MgSO4, 20 Na-Hepes (pH 7.3), and 10 glucose. Both solutions were continuously bubbled with air and the temperature of the solution was kept at 37° C. For HBECs, the same (bicarbonate-buffered) solution was used in both chambers. The composition of this solution was (in mM): 126 NaCl, 0.38 KH2PO4, 2.13 K2HPO4, 1 MgSO4, 1 CaCl2), 24 NaHCO3, and 10 glucose. Both sides were continuously bubbled with a gas mixture containing 5% CO2 and 95% air. […]
# Transepithelial voltage was short-circuited with a voltage-clamp (VCC MC8, Physiologic Instruments, San Diego, CA, USA) connected to the apical and basolateral chambers via Ag—AgCl electrodes and agar bridges (2% agar in 1 M KCl). […] The resulting short-circuited current from each channel was recorded on a personal computer with the Acquire & Analize 2.3 software (Physiologic Instruments, San Diego, CA, USA).
# ENaC = test: Short-circuit current recordings on human cultured bronchial epithelia, ENaC function; conditions: apical addition; ARN7149 10 μM, ARN11391 20 μM, ARN4550 20 μM, UTP 10 nM; FIG. 9
# Excerpt: In a further experimental setting, snapwell supports (cc3801, Corning) carrying differentiated bronchial epithelia generated in vitro were mounted in a vertical chamber resembling an Ussing system with internal fluid circulation (EM-CSYS-8, Physiologic Instruments, San Diego, CA, USA). The apical and basolateral hemichambers were filled with a solution containing (in mM): 126 NaCl, 0.38 KH2PO4, 2.13 K2HPO4, 1 MgSO4, 1 CaCl2), 24 NaHCO3, and 10 glucose. Both sides were continuously bubbled with a gas mixture containing 5% CO2 and 95% air. The temperature of the solution was kept at 37° C. throughout the experiment.
# During recordings, the following molecules (in addition to ARN7149, ARN11391, and ARN4550) were added in the apical solution: elastase (SE2093002, Serva); UTP (U6625, Merck); amiloride (A7410, Merck). Transepithelial voltage was short-circuited with a voltage-clamp (VCC MC8, Physiologic Instruments, San Diego, CA, USA) connected to the apical and basolateral chambers via Ag—AgCl electrodes and agar bridges (2% agar in 1 M KCl). The offset between voltage electrodes and the fluid resistance were cancelled before experiments. The resulting short-circuited current from each channel was recorded on a personal computer with the Acquire & Analize 2.3 software (Physiologic Instruments, San Diego, CA, USA).
# CCK1 receptor = biological target: T1, CCK1 receptor (Homo sapiens, UniProt P32238); test: Fluo-4 Ca2+ assay in Chem-1 cells expressing CCK1 receptor; conditions: CCK8s 0.25 nM; vs vehicle (DMSO); FIG. 10
# T1 construct: host or cells: Chem-1 cells
# T1 sequence (P32238 1-428): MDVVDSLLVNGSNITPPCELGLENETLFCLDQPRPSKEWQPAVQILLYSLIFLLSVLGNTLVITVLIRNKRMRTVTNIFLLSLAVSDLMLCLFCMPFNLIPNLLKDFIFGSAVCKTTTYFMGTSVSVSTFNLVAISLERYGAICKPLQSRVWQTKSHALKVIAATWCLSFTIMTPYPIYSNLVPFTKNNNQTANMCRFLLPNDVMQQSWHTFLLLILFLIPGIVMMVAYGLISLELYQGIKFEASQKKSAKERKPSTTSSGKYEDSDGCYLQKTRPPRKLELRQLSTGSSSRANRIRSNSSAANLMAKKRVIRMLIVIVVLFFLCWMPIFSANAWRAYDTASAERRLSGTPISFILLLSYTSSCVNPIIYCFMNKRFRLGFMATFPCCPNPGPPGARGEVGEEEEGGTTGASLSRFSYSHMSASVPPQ
# Experimental: Chem-1 cells expressing the CCK1 receptor (HTS184RTA, Merck) were cultured in Dulbecco's MEM/F12 (ECM0090L, EuroClone) with 10% fetal bovine serum, 2 mM L-glutamine, 100 U/ml penicillin and 100 μg/ml streptomycin.
# In a further experimental setting, experiments were performed using as above the FLUOstar Omega (BMG Labtech, Offenburg, Germany) microplate reader equipped with syringe pumps and optical excitation/emission filters optimized for yellow fluorescent protein (YFP) fluorescence (ET500/20× and ET535/30m, respectively; Chroma Technology Corporation). FRT and Chem-1 cells were cultured until confluence in 96-well microplates (cc3603, Corning). Cells were washed 2 times with PBS (150 μl/wash) and then loaded for 1 h at 37° C. with 5 μM Fluo-4/AM (Thermo Fisher Scientific; catalog number: F23917) in PBS containing 10 mM glucose, 0.5 mM sulfinpyrazone, and 1% fetal bovine serum. […] Fluo-4 fluorescence (500 nm excitation, 535 nm emission) was detected every 200 ms for 16-40 s. Two seconds after the start of fluorescence recording, the reader automatically injected 165 μl of a modified PBS containing 136 mM KCl instead of NaCl. […] The Fluo-4 fluorescence increase was quantified using a procedure compiled in Microsoft Excel after background subtraction and normalization for the initial value measured before UTP or CCK8s addition.
Compound,transepithelial Cl- current elicited by apical UTP (TMEM16A),"ENaC current decay (ENaC inhibition), short-circuit current (ENaC)",effect on CCK8s-induced Ca2+ mobilization (CCK1 receptor)
"OCc1ccccc1CN(Cc1ccnc(N2CCCC2)n1)c1ccc(F)cc1 [ARN4550, [2-[[4-Fluoro-N-[(2-pyrrolidin-1-ylpyrimidin-4-yl)methyl]anilino]methyl]phenyl]methanol]",significantly enhanced,caused ENaC current decay,significantly enhanced
"CCc1cc(-c2cc(NCCCOc3ccccc3C)nc(N)n2)n(C)n1 [ARN7149, 6-(3-Ethyl-1-methyl-1H-pyrazol-5-yl)-N^4-(3-(o-tolyloxy)propyl)pyrimidine-2,4-diamine]",significantly enhanced,caused ENaC current decay,lack of activity
"CCn1nc2c(c1C(=O)Nc1ccccc1OCC1CCCCO1)CCCC2 (stereo not shown) [ARN11391, 2-Ethyl-N-[2-(tetrahydropyran-2-ylmethoxy)phenyl]-4,5,6,7-tetrahydroindazole-3-carboxamide]",significantly enhanced,–,–
